Tested on: mice
Experiment: Passive avoidance test (scopolamine-induced memory decline)
Assay type: in vivo, mouse
Conditions: scopolamine 1 mg/kg; for Retention time: measured up to 300 seconds
Procedure: Passive avoidance test was performed to identify the memory improvement effect of the above 8 oleanolic acid saponin or hederagenin saponin substances in the body. Also, oleanolic acid and hederagenin, aglycons of the saponin compounds, were included in the test. A shuttle box measuring 50 cm×15 cm×40 cm was used. The box was divided into two compartments by a guillotine door. One compartment was brightly illuminated and the other was covered by black cloth. A mouse was placed in the illuminated compartment. Then, when the guillotine door was open, the mouse moved into the dark compartment within 20 seconds because it prefers darkness. The guillotine door was closed automatically as soon as the mouse entered the dark compartment. In this way, the latency time, or the time that elapsed until a mouse left the illuminated compartment and entered the dark compartment, was determined. On the first day, this training trial was performed until all the mice entered the dark compartment within 20 seconds. On the following day, the trained mice were placed in the illuminated compartment, one at a time, and were allowed to move into the dark compartment. When the mice entered the dark compartment, a foot-shock (0.8 mA, 3 seconds) was delivered through the electronic grid equipped on the floor of the dark compartment. 24 hours after this acquisition trial, the mice were placed in the illuminated compartment and were allowed to move into the dark compartment. Then, normal mice hesitated to move into the dark compartment remembering the shock of the day before. The time elapsed until the mice entered the dark compartment was measured up to 300 seconds. Retention time was measured to evaluate the memory improvement effect. Neither scopolamine nor the drug was administered to the control group. Scopolamine (1 mg/kg), which is known to decline memory function by inhibiting the transfer of neurotransmitters, was administered. An hour later, saponin (30 mg/kg) and aglycon (30 mg/kg), […] (donepezil, 1 mg/kg, positive control) and water (negative control) were administered.

[1] = saponin or aglycon 30 mg/kg administered once orally 1 hour later, 24 hours after acquisition trial
[2] = saponin or aglycon 30 mg/kg 1 hour later

| Compound | Retention time [1] [s] | other results |
| --- | --- | --- |
| 3-O-β-D-Xylopyranosyl(1→2)-β-D-galactopyranosyl(1→3)-β-D-glucolopyranosyloleanolic acid-28-O-β-D-glucopyranosyl ester [Elatoside C] | 160.1 ± 15.6 |  |
| COc1cc2c(cc1OC)C(=O)C(CC1CCN(Cc3ccccc3)CC1)C2 (centres unmarked) [Aricept, donepezil, reference compound] |  | times longer retention time than the negative control group (water) (Aricept 1 mg/kg orally 1 hour later): 1.6 times; Retention time (Aricept (donepezil) 1 mg/kg orally 1 hour later, positive control): 98.5 ± 10.6 s |
| C[C@@H]1O[C@@H](O[C@H]2[C@H](OC[C@H]3O[C@@H](OC(=O)[C@]45CCC(C)(C)C[C@H]4C4=CC[C@@H]6[C@@]7(C)CC[C@H](O[C@@H]8OC[C@H](O)[C@H](O)[C@H]8O)[C@@](C)(CO)[C@@H]7CC[C@@]6(C)[C@]4(C)CC5)[C@H](O)[C@@H](O)[C@@H]3O)OC[C@@H](O)[C@@H]2O)[C@H](O)[C@H](O)[C@H]1O [Loniceroside A, 3-O-α-L-Arabinopyranosylhederagenin-28-O-α-L-rhamnopyranosyl(1→2)-β-D-xylopyranosyl(1→6)-β-D-glucopyranosyl ester] | 175.3 ± 21.1 |  |
| C[C@@H]1O[C@@H](O[C@H]2[C@H](O[C@H]3CC[C@@]4(C)[C@@H](CC[C@]5(C)[C@@H]4CC=C4[C@@H]6CC(C)(C)CC[C@]6(C(=O)O[C@@H]6O[C@H](CO[C@@H]7O[C@H](CO)[C@@H](O[C@@H]8O[C@@H](C)[C@H](O)[C@@H](O)[C@H]8O)[C@H](O)[C@H]7O)[C@@H](O)[C@H](O)[C@H]6O)CC[C@]45C)[C@]3(C)CO)OC[C@H](O)[C@@H]2O)[C@H](O)[C@H](O)[C@H]1O [Kalopanaxsaponin B, 3-O-α-L-Rhamnopyranosyl(1→2)-α-L-arabinopyranosylhederagenin-28-O-α-L-rhamnopyranosyl(1→4)-β-D-glucopyranosyl(1→6)-β-D-glucopyranosyl ester] | 170.5 ± 24.6 |  |
| CC1OC(OC2C(CO)OC(OCC3OC(OC(=O)C45CCC(C)(C)CC4C4=CCC6C7(C)CCC(OC8OCC(OC9OC(CO)C(O)C(O)C9OC9OC(C)C(O)C(O)C9O)C(O)C8O)C(C)(C)C7CCC6(C)C4(C)CC5)C(O)C(O)C3O)C(O)C2O)C(O)C(O)C1O [Hederacolchiside E, 3-O-α-L-Rhamnopyranosyl(1→2)-β-D-glucopyranosyl(1→4)-α-L-arabinopyranosyloleanolic acid-28-O-α-L-rhamnopyranosyl(1→4)-β-D-glucopyranosyl(1→6)-β-D-glucopyranosyl ester] | 155.7 ± 31.2 |  |
| C[C@@H]1O[C@@H](O[C@H]2[C@H](O[C@H]3CC[C@]4(C)[C@H]5CC=C6[C@@H]7CC(C)(C)CC[C@]7(C(=O)O)CC[C@@]6(C)[C@]5(C)CC[C@H]4C3(C)C)OC[C@H](O)[C@@H]2O)[C@H](O)[C@H](O)[C@H]1O [Eleutheroside K, 3-O-α-L-Rhamnopyranosyl(1→2)-α-L-arabinopyranosyloleanolic acid] | 182.6 ± 15.9 |  |
| CC1(C)CC[C@]2(C(=O)O)CC[C@]3(C)C(=CC[C@@H]4[C@@]5(C)CC[C@H](O)C(C)(C)[C@@H]5CC[C@]43C)[C@@H]2C1 [Oleanolic acid, oleanolic acid, reference compound] | 149.4 ± 19.7 | times longer retention time than the negative control group (water) [2]: 2.4 times |
| CC1(C)CC[C@]2(C(=O)O)CC[C@]3(C)C(=CC[C@@H]4[C@@]5(C)CC[C@H](O)[C@@](C)(CO)[C@@H]5CC[C@]43C)[C@@H]2C1 [Hederagenin, hederagenin, reference compound] | 142.8 ± 32.6 | times longer retention time than the negative control group (water) [2]: 2.3 times |
| CC1OC(OC2C(OCC3OC(OC(=O)C45CCC(C)(C)CC4C4=CCC6C7(C)CCC(OC8OCC(O)C(O)C8OC8OC(C)C(O)C(O)C8O)C(C)(CO)C7CCC6(C)C4(C)CC5)C(O)C(O)C3O)OCC(O)C2O)C(O)C(O)C1O [Loniceroside B, 3-O-α-L-Rhamnopyranosyl(1→2)-α-L-arabinopyranosylhederagenin-28-O-α-L-rhamnopyranosyl(1→2)-β-D-xylopyranosyl(1→6)-β-D-glucopyranosyl ester] | 169.7 ± 25.4 |  |
| C[C@@H]1O[C@@H](O[C@H]2[C@H](O[C@H]3CC[C@]4(C)[C@H]5CC=C6[C@@H]7CC(C)(C)CC[C@]7(C(=O)O[C@@H]7O[C@H](CO[C@@H]8O[C@H](CO)[C@@H](O[C@@H]9O[C@@H](C)[C@H](O)[C@@H](O)[C@H]9O)[C@H](O)[C@H]8O)[C@@H](O)[C@H](O)[C@H]7O)CC[C@@]6(C)[C@]5(C)CC[C@H]4C3(C)C)OC[C@H](O)[C@@H]2O)[C@H](O)[C@H](O)[C@H]1O [Hederasaponin B, 3-O-α-L-Rhamnopyranosyl(1→2)-α-L-arabinopyranosyloleanolic acid-28-O-α-L-rhamnopyranosyl(1→4)-β-D-glucopyranosyl(1→6)-β-D-glucopyranosyl ester] | 172.3 ± 29.1 |  |
| 3-O-β-D-Xylopyranosyl(1→2)-β-D-galactopyranosyl(1→3)-β-D-glucolopyranosyloleanolic acid [Elatoside A] | 166.0 ± 24.8 |  |
